Results: patent publication US10487093B2, “Heterocyclic compounds, in particular 2-oxo-4,4,5,5,6,6,7,7-octahydrobenzoxazole derivatives, and their use as antibacterial compounds” (priority 2016, dated 2019)

Tested on: Gram-negative and Gram-positive bacterial strains
Type: cell-based
Conditions: including those which are resistant to fluoroquinolone antibiotics and other antibiotics

Structure (SMILES) | activity against all strains of A. baumannii and E. coli tested (in words)
COc1ccc2ncc(=O)n(CCN[C@H]3CCC4C(C3)OC(=O)N4c3ccc4c(n3)NC(=O)CO4)c2n1 (stereo in doubt) [Compound 45, (3aS,6S,7aS)-6-[(2-{6-methoxy-3-oxo-3H,4H-pyrido[2,3-b]pyrazin-4-yl}ethyl)amino]-3-{3-oxo-2H,3H,4H-pyrido[3,2-b][1,4]oxazin-6-yl}-octahydro-1,3-benzoxazol-2-one] | excellent activity
COc1ccc2ccc(=O)n(CCN[C@H]3CC[C@H]4[C@@H](C3)OC(=O)N4c3ccc4c(n3)NC(=O)CO4)c2n1 [Compound 4, 1-(2-{[(3aS,6S,7aR)-2-oxo-3-{3-oxo-2H,3H,4H-pyrido[3,2-b][1,4]oxazin-6-yl}-octahydro-1,3-benzoxazol-6-yl]amino}ethyl)-7-methoxy-1,2-dihydro-1,8-naphthyridin-2-one] | excellent activity
COc1ccc2ncc(=O)n(CCN[C@@H]3CC[C@@H]4[C@@H](C3)OC(=O)N4c3ccc4c(n3)NC(=O)CO4)c2c1 [Compound 21, 1-(2-{[(3aR,6R,7aR)-2-oxo-3-{3-oxo-2H,3H,4H-pyrido[3,2-b][1,4]oxazin-6-yl}-octahydro-1,3-benzoxazol-6-yl]amino}ethyl)-7-methoxy-1,2-dihydroquinoxalin-2-one] | excellent activity
O=C1COc2ccc(N3C(=O)O[C@@H]4C[C@@H](NCCn5c(=O)cnc6cc(F)c(F)cc65)CC[C@@H]43)nc2N1 [Compound 22, 1-(2-{[(3aS,6S,7aR)-2-oxo-3-{3-oxo-2H,3H,4H-pyrido[3,2-b][1,4]oxazin-6-yl}-octahydro-1,3-benzoxazol-6-yl]amino}ethyl)-6,7-difluoro-1,2-dihydroquinoxalin-2-one] | excellent activity
O=C1COc2ccc(N3C(=O)O[C@H]4C[C@@H](NCCn5c(=O)cnc6cc(F)c(F)cc65)CC[C@@H]43)nc2N1 [Compound 34, 1-(2-{[(3aS,6S,7aS)-2-oxo-3-{3-oxo-2H,3H,4H-pyrido[3,2-b][1,4]oxazin-6-yl}-octahydro-1,3-benzoxazol-6-yl]amino}ethyl)-6,7-difluoro-1,2-dihydroquinoxalin-2-one] | excellent activity
N#Cc1cnc2ccc(=O)n(CCN[C@H]3CC[C@H]4[C@H](C3)OC(=O)N4c3ccc4c(n3)NC(=O)CO4)c2c1 [Compound 55, 5-(2-{[(3aS,6S,7aS)-2-oxo-3-{3-oxo-2H,3H,4H-pyrido[3,2-b][1,4]oxazin-6-yl}-octahydro-1,3-benzoxazol-6-yl]amino}ethyl)-6-oxo-5,6-dihydro-1,5-naphthyridine-3-carbonitrile] | excellent activity
N#Cc1ccc2ccc(=O)n(CCN[C@H]3CC[C@H]4[C@H](C3)OC(=O)N4c3ccc4c(n3)NC(=O)CO4)c2c1 [Compound 56, 1-(2-{[(3aS,6S,7aS)-2-oxo-3-{3-oxo-2H,3H,4H-pyrido[3,2-b][1,4]oxazin-6-yl}-octahydro-1,3-benzoxazol-6-yl]amino}ethyl)-2-oxo-1,2-dihydroquinoline-7-carbonitrile] | excellent activity
N#Cc1ccc2ncc(=O)n(CCN[C@@H]3CC[C@@H]4[C@@H](C3)OC(=O)N4c3ccc4c(n3)NC(=O)CO4)c2c1 [Compound 68, 4-(2-{[(3aR,6R,7aR)-2-oxo-3-{3-oxo-2H,3H,4H-pyrido[3,2-b][1,4]oxazin-6-yl}-octahydro-1,3-benzoxazol-6-yl]amino}ethyl)-3-oxo-3,4-dihydroquinoxaline-6-carbonitrile] | excellent activity
COc1cnc2ccc(=O)n(CCN[C@@H]3CC[C@@H]4[C@@H](C3)OC(=O)N4c3ccc4c(n3)NC(=O)CO4)c2c1 [Compound 69, 1-(2-{[(3aR,6R,7aR)-2-oxo-3-{3-oxo-2H,3H,4H-pyrido[3,2-b][1,4]oxazin-6-yl}-octahydro-1,3-benzoxazol-6-yl]amino}ethyl)-7-methoxy-1,2-dihydro-1,5-naphthyridin-2-one] | excellent activity
N#Cc1cnc2ccc(=O)n(CCN[C@H]3CC[C@H]4[C@H](C3)OC(=O)N4c3ccc4c(n3)NC(=O)CS4)c2c1 [Compound 77, 5-(2-{[(3aS,6S,7aS)-2-oxo-3-{3-oxo-2H,3H,4H-pyrido[3,2-b][1,4]thiazin-6-yl}-octahydro-1,3-benzoxazol-6-yl]amino}ethyl)-6-oxo-5,6-dihydro-1,5-naphthyridine-3-carbonitrile] | excellent activity
COc1cccc(-c2cccc(CN[C@@H]3CC[C@@H]4[C@@H](C3)OC(=O)N4c3ccc4c(n3)NC(=O)CO4)c2)n1 [Compound 80, (3aR,6R,7aR)-6-({[3-(6-methoxypyridin-2-yl)phenyl]methyl}amino)-3-{3-oxo-2H,3H,4H-pyrido[3,2-b][1,4]oxazin-6-yl}-octahydro-1,3-benzoxazol-2-one] | excellent activity
COc1cnc2ccc(=O)n(CCN[C@H]3CC[C@H]4[C@H](C3)OC(=O)N4c3ccc4c(n3)NC(=O)CS4)c2c1 [Compound 81, 1-(2-{[(3aS,6S,7aS)-2-oxo-3-{3-oxo-2H,3H,4H-pyrido[3,2-b][1,4]thiazin-6-yl}-octahydro-1,3-benzoxazol-6-yl]amino}ethyl)-7-methoxy-1,2-dihydro-1,5-naphthyridin-2-one] | excellent activity
COc1ccc2ccc(=O)n(CCCN[C@H]3CC[C@H]4[C@H](C3)OC(=O)N4c3ccc4c(n3)NC(=O)CS4)c2n1 [Compound 85, 1-(3-{[(3aS,6S,7aS)-2-oxo-3-{3-oxo-2H,3H,4H-pyrido[3,2-b][1,4]thiazin-6-yl}-octahydro-1,3-benzoxazol-6-yl]amino}propyl)-7-methoxy-1,2-dihydro-1,8-naphthyridin-2-one] | excellent activity
O=C1COc2ccc(N3C(=O)O[C@@H]4C[C@H](NCCCn5c(=O)cnc6cc(F)c(F)cc65)CC[C@H]43)nc2N1 [Compound 88, 1-(3-{[(3aR,6R,7aR)-2-oxo-3-{3-oxo-2H,3H,4H-pyrido[3,2-b][1,4]oxazin-6-yl}-octahydro-1,3-benzoxazol-6-yl]amino}propyl)-6,7-difluoro-1,2-dihydroquinoxalin-2-one] | excellent activity
O=C1COc2ccc(N3C(=O)O[C@H]4C[C@@H](NCCCn5c(=O)cnc6cc(F)c(F)cc65)CC[C@@H]43)nc2N1 [Compound 90, 1-(3-{[(3aS,6S,7aS)-2-oxo-3-{3-oxo-2H,3H,4H-pyrido[3,2-b][1,4]oxazin-6-yl}-octahydro-1,3-benzoxazol-6-yl]amino}propyl)-6,7-difluoro-1,2-dihydroquinoxalin-2-one] | excellent activity
O=C1COc2ccc(N3C(=O)O[C@H]4C[C@@H](NCCn5c(=O)ccc6ccc(OC(F)F)cc65)CC[C@@H]43)nc2N1 [Compound 101, 1-(2-{[(3aS,6S,7aS)-2-oxo-3-{3-oxo-2H,3H,4H-pyrido[3,2-b][1,4]oxazin-6-yl}-octahydro-1,3-benzoxazol-6-yl]amino}ethyl)-7-(difluoromethoxy)-1,2-dihydro quinolin-2-one] | excellent activity
COc1ccc2ccc(=O)n(CCN[C@H]3CC[C@H]4[C@H](C3)OC(=O)N4c3ccc4c(n3)NC(=O)CO4)c2c1 [Compound 102, 1-(2-{[(3aS,6S,7aS)-2-oxo-3-{3-oxo-2H,3H,4H-pyrido[3,2-b][1,4]oxazin-6-yl}-octahydro-1,3-benzoxazol-6-yl]amino}ethyl)-7-methoxy-1,2-dihydroquinolin-2-one] | excellent activity
N#Cc1cccc(-c2cccc(CN[C@H]3CC[C@H]4[C@H](C3)OC(=O)N4c3ccc4c(n3)NC(=O)CO4)n2)c1 [Compound 105, 3-[6-({[(3aS,6S,7aS)-2-oxo-3-{3-oxo-2H,3H,4H-pyrido[3,2-b][1,4]oxazin-6-yl}-octahydro-1,3-benzoxazol-6-yl]amino}methyl)pyridin-2-yl]benzonitrile] | excellent activity
